Columns and labels:
human mGlu5 receptor = human mGlu5 receptor (Homo sapiens (Human), UniProt P41594); assay: [3H]-M-MPEP radioligand binding assay; conditions: competition with [3H]-M-MPEP, membranes of HEK293 cells transfected with human mGlu5
Experimental: Biological Methods Membrane Preparation
cDNA encoding the human mGlu5 receptor was transfected into HEK293 cells using the transfection reagent Genejuice (Novagen). Forty-eight hours after transfection, cells were harvested and washed twice with ice cold phosphate-buffered saline. The pellet was re-suspended in ice-cold buffer containing 20 mM Tris-HCl, pH 7.4, 1 mM EDTA and homogenised with an Ultraturax for 30 s at maximum speed. The suspension was centrifuged (800×g for 5 min at 4° C.) and supernatant collected. Supernatant was centrifuged (40,000×g for 30 min at 4° C.). The resulting pellet was re-suspended and frozen at −80° C. before use. Protein concentration was determined using the BCA protein assay method (Merck Chemicals Ltd).
[^3H]-M-MPEP Radioligand Binding Assay
After thawing, membrane homogenates were re-suspended in the binding buffer (50 mM HEPES pH 7.5, 150 mM NaCl) to a final assay concentration of 2.5 μg protein per well. […] At the end of the incubation, membranes were filtered onto a 96-well GF/B filter pre-incubated with 0.1% polyethylenimine, with a Tomtec cell harvester and washed 5 times with 0.5 mL distilled water. Non-specific binding (NSB) was measured in the presence of 0.1 mM MPEP hydrochloride (Tocris bioscience, catalogue number 1212). Radioactivity on the filter was counted (1 min) on a microbeta counter after addition of 50 μL of scintillation fluid. […] IC50 values were derived from the inhibition curve and the equilibrium dissociation constant (Ki) values were calculated using the Cheng-Prussoff equation.

[1] = target: hippocampal mGlu5 receptors (Rattus norvegicus (Rat), UniProt P31424); assay: Ex vivo mGlu5 receptor occupancy; assay type: in vivo; conditions: Sprague Dawley rats, 1-10 mg/kg po, one hour post-dose, hippocampal CA3 sections, [3H]-M-MPEP autoradiography, read-out: estimated ED50 (receptor occupancy)
Chain of hippocampal mGlu5 receptors (P31424 21-1203): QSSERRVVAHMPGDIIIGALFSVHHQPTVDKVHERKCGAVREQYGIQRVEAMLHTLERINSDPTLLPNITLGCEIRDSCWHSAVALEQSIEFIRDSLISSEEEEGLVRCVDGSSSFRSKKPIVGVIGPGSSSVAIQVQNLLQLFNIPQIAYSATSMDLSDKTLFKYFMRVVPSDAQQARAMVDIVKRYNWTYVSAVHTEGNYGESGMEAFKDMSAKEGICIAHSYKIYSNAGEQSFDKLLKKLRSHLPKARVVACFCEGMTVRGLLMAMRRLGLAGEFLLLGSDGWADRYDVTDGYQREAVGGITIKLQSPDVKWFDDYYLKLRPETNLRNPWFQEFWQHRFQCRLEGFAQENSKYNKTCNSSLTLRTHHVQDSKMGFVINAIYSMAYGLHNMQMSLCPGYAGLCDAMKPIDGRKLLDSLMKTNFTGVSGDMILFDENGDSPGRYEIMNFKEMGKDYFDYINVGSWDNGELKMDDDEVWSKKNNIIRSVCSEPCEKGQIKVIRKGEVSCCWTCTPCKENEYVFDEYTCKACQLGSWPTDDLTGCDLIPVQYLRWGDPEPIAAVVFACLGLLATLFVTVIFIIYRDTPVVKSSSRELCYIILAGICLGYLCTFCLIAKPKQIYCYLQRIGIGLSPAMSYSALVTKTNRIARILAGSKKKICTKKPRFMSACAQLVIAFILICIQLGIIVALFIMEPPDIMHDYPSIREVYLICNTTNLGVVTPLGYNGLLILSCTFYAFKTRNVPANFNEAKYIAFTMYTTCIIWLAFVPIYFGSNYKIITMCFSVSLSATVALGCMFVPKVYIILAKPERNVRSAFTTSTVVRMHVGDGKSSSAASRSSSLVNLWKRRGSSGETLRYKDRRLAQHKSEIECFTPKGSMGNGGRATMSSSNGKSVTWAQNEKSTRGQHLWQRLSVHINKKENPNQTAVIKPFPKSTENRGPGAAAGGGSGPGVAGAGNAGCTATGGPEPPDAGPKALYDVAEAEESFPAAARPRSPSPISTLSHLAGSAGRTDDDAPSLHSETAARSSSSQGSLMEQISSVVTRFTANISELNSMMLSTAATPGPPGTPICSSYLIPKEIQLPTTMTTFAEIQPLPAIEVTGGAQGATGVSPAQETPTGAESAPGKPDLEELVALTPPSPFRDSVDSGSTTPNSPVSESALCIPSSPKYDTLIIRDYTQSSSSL
Experimental: Ex Vivo mGlu5 Receptor Occupancy
One hour post-dose, animals were sacrificed and whole brains removed, rinsed and blot dried. A coronal block was cut containing the hippocampus and divided along the mid-line and rapidly frozen in isopentane for sectioning and autoradiography. Coronal half-brain sections were cut 20 μm thick, approximately 4 mm posterior to the bregma, to incorporate the hippocampal CA3 region. Three adjacent sections were mounted onto slides and incubated with 2 nM [^3H]-M-MPEP (total binding) or 2 nM [^3H]-M-MPEP and 10 μM fenobam (non-specific binding, Tocris bioscience, catalogue number 2386) for 10 min at room temperature. Binding was terminated by aspiration and washing with ice-cold assay buffer (4×5 min) and sections allowed to air dry. Levels of bound radioactivity in the sections were determined using a beta imager over a 16 h period. Occupancy was determined as mean specific binding with the vehicle treated control taken as 100%.

Male CD-1 mice = assay: In vivo efficacy test - mouse marble burying; conditions: 10 and 30 mg/kg po versus vehicle group, dosed 30 min prior to test, one-way ANOVA with Dunnett's post-hoc test
From the text: In Vivo Efficacy Test—Marble Burying

Chain of human mGlu5 receptor (P41594 21-1212): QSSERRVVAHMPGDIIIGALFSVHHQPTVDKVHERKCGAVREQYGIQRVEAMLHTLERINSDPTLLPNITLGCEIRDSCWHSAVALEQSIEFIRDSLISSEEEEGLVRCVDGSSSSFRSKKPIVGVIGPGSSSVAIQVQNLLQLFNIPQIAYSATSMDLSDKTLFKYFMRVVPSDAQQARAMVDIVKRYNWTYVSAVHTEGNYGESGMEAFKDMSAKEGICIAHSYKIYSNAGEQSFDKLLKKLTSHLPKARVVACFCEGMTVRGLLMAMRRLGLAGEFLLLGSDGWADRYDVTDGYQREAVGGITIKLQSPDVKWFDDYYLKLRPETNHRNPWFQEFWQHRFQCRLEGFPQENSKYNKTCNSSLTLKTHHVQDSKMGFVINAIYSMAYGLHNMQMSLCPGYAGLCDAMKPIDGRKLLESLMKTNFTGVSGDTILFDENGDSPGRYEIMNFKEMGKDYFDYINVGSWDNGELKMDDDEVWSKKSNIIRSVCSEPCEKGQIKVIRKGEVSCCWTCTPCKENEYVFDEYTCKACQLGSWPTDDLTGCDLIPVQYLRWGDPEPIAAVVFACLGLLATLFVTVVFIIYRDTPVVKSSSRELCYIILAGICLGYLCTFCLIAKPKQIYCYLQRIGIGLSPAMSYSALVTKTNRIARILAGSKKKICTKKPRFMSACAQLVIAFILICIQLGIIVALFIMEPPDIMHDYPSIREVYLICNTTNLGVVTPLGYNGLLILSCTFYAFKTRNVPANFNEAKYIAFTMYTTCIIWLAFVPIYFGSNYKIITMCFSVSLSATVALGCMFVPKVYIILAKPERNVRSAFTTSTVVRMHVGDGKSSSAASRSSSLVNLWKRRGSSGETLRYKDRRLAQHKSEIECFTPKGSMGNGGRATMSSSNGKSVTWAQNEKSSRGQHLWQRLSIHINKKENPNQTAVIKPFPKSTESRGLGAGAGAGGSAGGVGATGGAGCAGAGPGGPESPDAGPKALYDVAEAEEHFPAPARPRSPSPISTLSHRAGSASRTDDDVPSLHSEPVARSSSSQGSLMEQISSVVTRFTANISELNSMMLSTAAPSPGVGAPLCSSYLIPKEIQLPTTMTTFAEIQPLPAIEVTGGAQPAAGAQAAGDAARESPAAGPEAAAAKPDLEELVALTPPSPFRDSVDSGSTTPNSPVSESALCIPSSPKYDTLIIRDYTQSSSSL

Compound | pKi avg (human mGlu5 receptor) | ED50 [1] | number of marbles buried (Male CD-1 mice)
N#Cc1cc(Cl)c(F)c(-c2cc(-n3cccn3)ccn2)c1 [Example 10, 3-chloro-4-fluoro-5-[4-(1H-pyrazol-1-yl)pyridin-2-yl]benzonitrile] | 8.37 |  | 
N#Cc1cc(C#N)cc(-c2cc(-c3ccc(F)cn3)ncn2)c1 [Example 18, 5-[6-(5-fluoropyridin-2-yl)pyrimidin-4-yl]benzene-1,3-dicarbonitrile] |  | 2.9 mg/kg | 
Cc1ccc(-c2cc(-c3cc(C)cc(C#N)c3)ncn2)nc1 [Example 23, 3-methyl-5-[6-(5-methylpyridin-2-yl)pyrimidin-4-yl]benzonitrile] | 8.67 |  | 
N#Cc1cc(Cl)c(F)c(-c2cc(-n3cc(F)cn3)ncn2)c1 [Example 12, 3-chloro-4-fluoro-5-[6-(4-fluoro-1H-pyrazol-1-yl)pyrimidin-4-yl]benzonitrile] | 8.00 |  | 
N#Cc1cc(Cl)cc(-c2cc(-c3ccc(F)cn3)ncn2)c1 [Example 17, 3-chloro-5-[6-(5-fluoropyridin-2-yl)pyrimidin-4-yl]benzonitrile] |  | 0.3 mg/kg | statistically significant decrease
N#Cc1cc(C#N)cc(-c2cc(-c3ccccn3)ncn2)c1 [Example 21, 5-[6-(pyridin-2-yl)pyrimidin-4-yl]benzene-1,3-dicarbonitrile] | 7.98 |  | 
N#Cc1cc(Cl)cc(-c2cc(-c3ccncn3)ncn2)c1 [Example 6, 3-(4,4′-bipyrimidin-6-yl)-5-chlorobenzonitrile] | 8.27 |  | 
COc1cc(C#N)cc(-c2cc(-c3ccc(F)cn3)ncn2)c1 [Example 25, 3-[6-(5-fluoropyridin-2-yl)pyrimidin-4-yl]-5-methoxybenzonitrile] | 8.37 |  | 

Now from value to molecule, other results behind:

pKi avg (human mGlu5 receptor) | ED50 [1] | Compound | number of marbles buried (Male CD-1 mice)
 | 2.8 mg/kg | N#Cc1cc(Cl)cc(-c2cc(-c3ccccn3)ncn2)c1 [Example 2, 3-chloro-5-[6-(pyridin-2-yl)pyrimidin-4-yl]benzonitrile] | 
8.56 |  | Cc1cc(C#N)cc(-c2cc(-c3ccccn3)ncn2)c1 [Example 4, 3-methyl-5-[6-(pyridin-2-yl)pyrimidin-4-yl]benzonitrile] | 
8.17 |  | N#Cc1cc(CF)cc(-c2cc(-n3cccn3)ncn2)c1 [Example 16, 3-(fluoromethyl)-5-[6-(1H-pyrazol-1-yl)pyrimidin-4-yl]benzonitrile] | 
8.57 |  | COCc1cc(C#N)cc(-c2cc(-c3ccc(F)cn3)ncn2)c1 [Example 24, 3-[6-(5-fluoropyridin-2-yl)pyrimidin-4-yl]-5-(methoxymethyl)benzonitrile] | 
8.16 |  | N#Cc1cc(Cl)c(F)c(-c2ccnc(-n3cccn3)c2)c1 [Example 11, 3-chloro-4-fluoro-5-[2-(1H-pyrazol-1-yl)pyridin-4-yl]benzonitrile] | 

Reference: patent publication US10246432B2, “4-(3-cyanophenyl)-6-pyridinylpyrimidine mGlu5 modulators” (Heptares Therapeutics Limited, priority 2013, dated 2019)
